Tests used:
[1] = target: T1, Amine oxidase [flavin-containing] A (Homo sapiens, UniProt P21397); experiment: Inhibition of human MAO-A using kynuramine as substrate by fluorometric assay
T1 sequence (P21397 whole entry): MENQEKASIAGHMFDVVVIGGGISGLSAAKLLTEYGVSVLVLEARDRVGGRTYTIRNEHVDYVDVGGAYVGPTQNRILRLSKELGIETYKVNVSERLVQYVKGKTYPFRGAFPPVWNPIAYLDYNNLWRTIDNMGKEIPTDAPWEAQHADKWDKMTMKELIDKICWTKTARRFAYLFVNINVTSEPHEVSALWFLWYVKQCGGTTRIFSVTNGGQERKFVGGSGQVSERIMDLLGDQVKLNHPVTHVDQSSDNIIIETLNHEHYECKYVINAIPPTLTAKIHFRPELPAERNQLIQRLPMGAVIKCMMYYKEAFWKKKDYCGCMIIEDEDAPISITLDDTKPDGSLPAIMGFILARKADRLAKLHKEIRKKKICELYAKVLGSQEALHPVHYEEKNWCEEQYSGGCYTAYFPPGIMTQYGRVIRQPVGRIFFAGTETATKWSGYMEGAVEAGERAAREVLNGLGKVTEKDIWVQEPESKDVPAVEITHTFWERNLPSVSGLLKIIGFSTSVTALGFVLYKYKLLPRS

[2] = target: T2, Amine oxidase [flavin-containing] B (Homo sapiens, UniProt P27338); experiment: Inhibition of human MAO-B using benzylamine as substrate by fluorometric assay
T2 sequence (P27338 whole entry): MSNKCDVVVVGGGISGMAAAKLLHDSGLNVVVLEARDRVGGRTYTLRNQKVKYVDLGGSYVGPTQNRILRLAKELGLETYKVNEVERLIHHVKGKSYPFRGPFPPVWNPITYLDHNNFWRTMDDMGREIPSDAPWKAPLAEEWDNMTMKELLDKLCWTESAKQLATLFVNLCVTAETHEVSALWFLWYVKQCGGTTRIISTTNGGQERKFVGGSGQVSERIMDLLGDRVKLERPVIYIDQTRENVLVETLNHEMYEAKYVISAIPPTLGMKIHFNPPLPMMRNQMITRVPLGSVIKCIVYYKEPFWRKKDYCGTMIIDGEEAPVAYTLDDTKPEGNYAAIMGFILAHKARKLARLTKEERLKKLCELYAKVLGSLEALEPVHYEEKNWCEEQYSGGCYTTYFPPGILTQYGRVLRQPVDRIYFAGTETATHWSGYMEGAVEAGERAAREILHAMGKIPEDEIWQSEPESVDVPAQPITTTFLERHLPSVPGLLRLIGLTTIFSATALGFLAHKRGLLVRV

Homo sapiens = species on record: Homo sapiens; experiment: Selectivity index, ratio of IC50 for inhibition of human MAO-B using benzylamine as substrate to IC50 for inhibition of human MAO-A using kynuramine as substrate
[3] = target: T2, Amine oxidase [flavin-containing] B; experiment: Inhibition of MAO-B (unknown origin)
PC-12 = experiment: Neuroprotective activity against rotenone-induced cytotoxicity in rat PC12 cells assessed as increase in cell viability at 16 microg/ml by MTT assay; assay type: functional; conditions: dose 16 µg/ml
[4] = target: T1, Amine oxidase [flavin-containing] A; experiment: Inhibition of MAO-A (unknown origin)
SH-SY5Y = experiment: Cytotoxicity against human SH-SY5Y cells by MTT assay; assay type: functional, cell-based
[5] = target: T1, Amine oxidase [flavin-containing] A; experiment: Mixed type inhibition of human MAO-A by lineweaver-burk plot analysis

SMILES	IC50 [1]	IC50 [2]	Ratio IC50 (Homo sapiens)	further results
C=CCN1C(=O)S/C(=C\c2ccc(N3CCN(c4ccc(F)cc4)CC3)cc2)C1=O	1480 nM	330 nM	0.22	–
CC(C)(C)c1ccc(S(=O)(=O)c2ccc(N3CCN(C(c4ccccc4)c4ccccc4)CC3)cc2)cc1	–	–	–	IC50 [3]: 610 nM
C#CCN[C@@H]1CCc2ccccc21 [RASAGILINE]	–	–	–	Activity (PC-12): 69.75%
C#CCN1C(=O)S/C(=C\c2ccc(N3CCN(c4ccccc4)CC3)cc2)C1=O	1490 nM	3010 nM	2.02	–
C#CCN1C(=O)S/C(=C\c2ccc(N3CCN(C4CCCCC4)CC3)cc2)C1=O	1430 nM	705 nM	0.49	–
COc1ccc(N2CCN(Cc3nnc(SCC(=O)c4ccc(Cl)cc4)n3C)CC2)cc1	–	–	–	IC50 [4]: 70 nM; IC50 [3]: 70 nM
CN1CCN(c2ccc(/C=N/Nc3nc(-c4ccc([N+](=O)[O-])cc4)cs3)cc2)CC1	–	–	–	IC50 [4]: 57 nM
O=C1S/C(=C\c2ccc(N3CCN(C4CCCCC4)CC3)cc2)C(=O)N1Cc1ccccc1	518 nM	2740 nM	5.28	–
OCc1ccc(N2CCN(c3cccc(Cl)c3)CC2)cc1	–	–	–	IC50 [4]: 90 nM
O=C1S/C(=C\c2ccc(N3CCN(c4ccccc4)CC3)cc2)C(=O)N1Cc1ccccc1	194 nM	652 nM	3.36	–
C=CCN1C(=O)S/C(=C\c2ccc(N3CCN(C4CCCCC4)CC3)cc2)C1=O	1730 nM	> 10000 nM	> 5.79	–
O=C1NC(=O)/C(=C/c2ccc(N3CCN(C4CCCCC4)CC3)cc2)S1	3150 nM	8980 nM	2.85	–
O=C1S/C(=C\c2ccc(N3CCN(c4ccc(F)cc4)CC3)cc2)C(=O)N1Cc1ccccc1	188 nM	479 nM	–	IC50 (SH-SY5Y): 94600 nM; Activity (PC-12): 73.16%; Ki [5]: 3.4 nM
O=C1NC(=O)/C(=C/c2ccc(N3CCN(c4ccc(F)cc4)CC3)cc2)S1	2520 nM	7130 nM	2.83	–
O=C1NC(=O)/C(=C/c2ccc(N3CCN(c4ccccc4)CC3)cc2)S1	405 nM	6730 nM	16.6	–
C=CCN1C(=O)S/C(=C\c2ccc(N3CCN(c4ccccc4)CC3)cc2)C1=O	5700 nM	> 10000 nM	> 2.66	–

Further lines, with some results ahead:

IC50 [1]	IC50 [2]	Ratio IC50 (Homo sapiens)	SMILES	further results
812 nM	5580 nM	6.87	C=CCN1C(=O)S/C(=C\c2ccc(N3CCN(c4ccccc4OCC)CC3)cc2)C1=O	–
502 nM	1060 nM	2.11	CCOc1ccccc1N1CCN(c2ccc(/C=C3\SC(=O)N(Cc4ccccc4)C3=O)cc2)CC1	–
218 nM	1740 nM	7.96	C#CCN1C(=O)S/C(=C\c2ccc(N3CCN(c4ccccc4OCC)CC3)cc2)C1=O	–
381 nM	1360 nM	3.57	C#CCN1C(=O)S/C(=C\c2ccc(N3CCN(c4ccc(F)cc4)CC3)cc2)C1=O	–
1360 nM	2730 nM	2	CCOc1ccccc1N1CCN(c2ccc(/C=C3\SC(=O)NC3=O)cc2)CC1	–

— ChEMBL document CHEMBL6115005, “New phenylpiperazine-thiazolidine-2,4-dione hybrids targeting MAO inhibition: Synthesis, biological evaluation, kinetic study and in silico insights” (Bioorg Med Chem, 2025)
